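Where inhibition never reached the appropriate level, the endpoint shown equals the highest concentration tested. Otherwise, values were interpolated linearly from a five-concentration, 48-hour dose response in 96-well plates. GI50 is the concentration that inhibits growth by half.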 Active and inactive are the calls of the source. No stated cut-off is given here; in the data, active = GI50 up to about 1.1 µM and inactive = higher.
How the values were obtained:
Experiment in all cases: NCI tumour cell line growth inhibition, 48 h
[1] = tested on: CAKI-1
[2] = tested on: HCC 2998
[3] = tested on: HCT-116
[4] = tested on: OVCAR-4
[5] = tested on: OVCAR-8
[6] = tested on: SK-MEL-5
[7] = tested on: SK-OV-3
[8] = tested on: SN12C
[9] = tested on: SR
[10] = tested on: TK-10
[11] = tested on: U-251
[12] = tested on: UO-31
[13] = tested on: XF498
[14] = tested on: HT-29
[15] = tested on: Malme-3M
[16] = tested on: BT-549
[17] = tested on: Hs-578T
[18] = tested on: NCI/ADR-RES
[19] = tested on: PC-3
[20] = tested on: T47D

Measured: GI50

c1ccc(SCCCC(Sc2ccccc2)Sc2ccccc2)cc1
inactive: [1] > 100 µM | [2] > 100 µM | [3] > 100 µM | [4] > 100 µM | [5] > 100 µM | [6] > 100 µM | [7] > 100 µM | [8] > 100 µM | [9] > 100 µM | [10] > 100 µM | [11] > 100 µM | [12] > 100 µM | [13] > 100 µM

O=C(c1ccc([N+](=O)[O-])cc1[N+](=O)[O-])N(/N=C/C=C/c1ccccc1)c1nnc(-c2ccccc2)c(-c2ccccc2)n1
inactive: [1] 25.4 µM | [2] 31.6 µM | [14] 46 µM | [15] 43.8 µM | [4] 20.8 µM | [5] 22.7 µM | [6] 30.6 µM | [7] 74.8 µM | [8] 63.7 µM | [10] 27.2 µM | [11] 40.3 µM | [12] 18.5 µM | [13] 17.6 µM

Nc1nc(O)c([N+](=O)[O-])c(NCCOCP(=O)(O)O)n1
inactive: [2] > 100 µM | [3] > 100 µM | [14] > 100 µM | [15] > 100 µM | [5] > 100 µM | [7] > 100 µM | [8] > 100 µM | [9] > 100 µM | [10] > 100 µM | [11] > 100 µM | [12] > 100 µM | [13] > 100 µM

O=c1[nH]c(=O)n(C2CC(O)C(CO)O2)cc1COCC(F)(F)F (stereo unspecified)
inactive: [1] > 100 µM | [2] > 100 µM | [14] > 100 µM | [15] > 100 µM | [4] > 100 µM | [5] > 100 µM | [6] > 100 µM | [7] > 100 µM | [8] > 100 µM | [10] > 100 µM | [11] > 100 µM | [12] > 100 µM | [13] > 100 µM

CCOC(=O)c1ccc(NC(=O)O/N=C(/Cl)C(C)C)cc1
inactive: [16] 14.9 µM | [1] 4.63 µM | [2] 16.6 µM | [3] 8.05 µM | [14] 20.7 µM | [17] 29.5 µM | [15] 3.76 µM | [18] 19 µM | [4] 14.5 µM | [5] 13.9 µM | [19] 20.4 µM | [6] 16.1 µM | [7] 18.9 µM | [8] 19.9 µM | [9] 2.87 µM | [20] 2.75 µM | [10] 16.4 µM | [11] 19.1 µM | [12] 17.8 µM

COc1ccc(N2C=Nn3c(nc4sc5c(c4c3=O)CCCC5)C2)cc1
inactive: [16] 20.7 µM | [1] 40.4 µM | [2] 47.8 µM | [3] 19.4 µM | [14] > 100 µM | [17] 3.02 µM | [15] 18.1 µM | [18] > 100 µM | [4] > 100 µM | [5] 51.4 µM | [19] > 100 µM | [6] > 100 µM | [7] > 100 µM | [8] > 100 µM | [9] > 100 µM | [20] > 100 µM | [10] 77.1 µM | [11] 16.7 µM | [12] > 100 µM

CC(C)(C)/N=C1/CC(C)(C)c2ccccc2/C(=N\c2ccccc2)S1
inactive: [1] 40.2 µM | [2] 35.2 µM | [3] 33.4 µM | [14] 35 µM | [15] 27.9 µM | [5] 41.8 µM | [6] 24.6 µM | [7] 57 µM | [8] 29.4 µM | [10] 75.9 µM | [11] 30.6 µM | [12] 31.8 µM | [13] 21.1 µM

COc1cc(C2c3cc4c(cc3OC(N3CCCCC3)C2C)OCO4)cc(OC)c1O (stereo unspecified)
inactive: [16] 10.5 µM | [1] 12 µM | [2] 12.2 µM | [3] 4.59 µM | [14] 8.75 µM | [17] 7.53 µM | [15] 4.36 µM | [18] 4.57 µM | [4] 17.3 µM | [5] 13.4 µM | [19] 7.91 µM | [6] 5.7 µM | [7] 5.89 µM | [8] 11.4 µM | [9] 4.82 µM | [20] 11.7 µM | [10] 16.4 µM | [11] 9.71 µM | [12] 15 µM

CCCCON1C[C@H](OC(C)=O)C(OC(C)=O)[C@H](OC(C)=O)C1 (stereo partly specified)
inactive: [16] > 100 µM | [1] > 100 µM | [2] > 100 µM | [3] > 100 µM | [14] > 100 µM | [17] > 100 µM | [15] > 100 µM | [18] > 100 µM | [4] 7.14 µM | [5] > 100 µM | [19] > 100 µM | [6] > 100 µM | [7] > 100 µM | [8] > 100 µM | [9] > 100 µM | [20] > 100 µM | [10] > 100 µM | [11] > 100 µM | [12] > 100 µM

O=C(CN1CCN(Cc2ccccc2)CC1)N1CCCn2c1nc1ccccc1c2=O
inactive: [16] > 100 µM | [1] > 100 µM | [2] > 100 µM | [3] > 100 µM | [14] > 100 µM | [17] > 100 µM | [15] > 100 µM | [18] > 100 µM | [4] > 100 µM | [5] > 100 µM | [19] > 100 µM | [6] > 100 µM | [7] > 100 µM | [8] > 100 µM | [9] > 100 µM | [20] > 100 µM | [10] > 100 µM | [11] > 100 µM | [12] > 100 µM

Cc1ccc(C2=C(c3ccccc3)C(Br)(c3ccccc3)C(c3ccccc3)=C2c2ccc(C)cc2)cc1
inactive: [1] > 100 µM | [3] > 100 µM | [14] > 100 µM | [15] > 100 µM | [4] > 100 µM | [5] > 100 µM | [6] > 100 µM | [7] > 100 µM | [8] > 100 µM | [10] > 100 µM | [11] > 100 µM | [12] > 100 µM | [13] > 100 µM

O=C1OC(c2ccc(O)c(-c3ccccc3)c2)(c2ccc(O)c(-c3ccccc3)c2)c2c(Cl)c(Cl)c(Cl)c(Cl)c21
inactive: [16] > 100 µM | [1] > 100 µM | [2] > 100 µM | [3] > 100 µM | [14] > 100 µM | [17] > 100 µM | [15] > 100 µM | [18] > 100 µM | [4] > 100 µM | [5] > 100 µM | [19] > 100 µM | [6] > 100 µM | [7] > 100 µM | [8] > 100 µM | [9] > 100 µM | [20] > 100 µM | [10] > 100 µM | [11] > 100 µM | [12] > 100 µM
